Experimental data reported in ChEMBL document CHEMBL4043119, “Synthesis and biological evaluation in vitro and in mammalian cells of new heteroaryl carboxyamides as HIV-protease inhibitors” (Bioorg Med Chem, 2017).
Activity calls are given as the source filed them. No cut-off for these calls is given here.

Key:
[1] = Inhibition of wild-type recombinant HIV-1 protease expressed in Escherichia coli using Abz-Thr-Ile-Nle-Phe(p-NO2)-Gln-Arg-NH2 as substrate by fluorescence assay; set-up: species or system Human immunodeficiency virus 1
[2] = (§1) Cytotoxicity against HEK293 cells after 24 hrs by MTT assay; format: cell-based; conditions: human, HEK293 cells
HEK293 = assay: as §1; format: cell-based; conditions: human, hek293, 24 h
[3] = tested on: Human immunodeficiency virus 1; assay: Inhibition of recombinant HIV-1 GFP-tagged protease expressed in HEK293 cells assessed as increase in GFP-tagged protease accumulation at 10 uM after 24 hrs by Western blot analysis; format: cell-based
[4] = tested on: Human immunodeficiency virus 1; assay: Inhibition of recombinant HIV-1 GFP-tagged protease expressed in HEK293 cells assessed as increase in GFP-tagged protease accumulation after 24 hrs by fluorescence microscopic analysis; format: cell-based
[5] = tested on: Human immunodeficiency virus 1; assay: Inhibition of recombinant HIV-1 GFP-tagged protease expressed in HEK293 cells assessed as increase in GFP-tagged protease accumulation at 10 to 30 uM after 24 hrs by flow cytometric analysis; format: cell-based
[6] = tested on: Human immunodeficiency virus 1; assay: Inhibition of recombinant HIV-1 GFP-tagged protease expressed in HEK293 cells assessed as increase in GFP-tagged protease accumulation at 10 uM after 24 hrs by flow cytometric analysis; format: cell-based

SMILES | IC50 [1] [nM] | CC50 at 24 h [2] [nM] | Activity (HEK293) | Inhibition (qualitative activity call) [3] | inhibition [4] | inhibition [5] | inhibition [6]
COc1ccc(S(=O)(=O)N(CC(C)C)C[C@@H](O)CNC(=O)c2ccc3occc3c2)cc1OC | 1 |  |  |  |  |  | 
CC(C)CN(C[C@@H](O)[C@H](Cc1ccccc1)NC(=O)O[C@H]1CO[C@H]2OCC[C@H]21)S(=O)(=O)c1ccc(N)cc1 |  |  |  | Active | Active |  | Active
COc1ccc(S(=O)(=O)N(CC(C)C)C[C@@H](O)CNC(=O)c2ccc3[nH]ccc3c2)cc1OC | 4000 |  |  |  |  |  | 

Further lines, with some results ahead:

IC50 [1] [nM] | SMILES | CC50 at 24 h [2] [nM] | Activity (HEK293) | Inhibition (qualitative activity call) [3] | inhibition [4] | inhibition [5] | inhibition [6]
2 | COc1ccc(S(=O)(=O)N(CC(C)C)C[C@@H](O)[C@H](Cc2ccccc2)NC(=O)c2ccc3[nH]ccc3c2)cc1OC | > 200000 | Dose-dependent effect | Active | Active | Active | 
1.1 | COc1ccc(S(=O)(=O)N(CC(C)C)C[C@@H](O)[C@H](Cc2ccccc2)NC(=O)c2ccc3occc3c2)cc1OC | > 200000 | Dose-dependent effect | Active | Active | Active | 
15 | COc1ccc(S(=O)(=O)N(CC(C)C)C[C@@H](O)CNC(=O)c2ccc3sccc3c2)cc1OC |  |  |  |  |  | 
13 | COc1ccc(S(=O)(=O)N(CC(C)C)C[C@@H](O)[C@H](Cc2ccccc2)NC(=O)c2ccc3sccc3c2)cc1OC | > 200000 | Dose-dependent effect | Active | Active | Active | 
